What all share (type): functional
One assay relates to Aeromonas hydrophila. In words: Antibacterial activity against Aeromonas hydrophila QDIO-1 assessed as inhibition of bacterial growth by serial dilution method.
For a further assay, the system named is Escherichia coli. As to the kind of experiment: Antibacterial activity against Escherichia coli EMBLC-1 assessed as inhibition of bacterial growth by serial dilution method.
In another assay the test system is Edwardsiella tarda. As to the kind of experiment: Antibacterial activity against Edwardsiella tarda QDIO-2 assessed as inhibition of bacterial growth by serial dilution method.
In the next assay the test system is Micrococcus luteus. In words: Antibacterial activity against Micrococcus luteus QDIO-3 assessed as inhibition of bacterial growth by serial dilution method.
Another assay has as its system Pseudomonas aeruginosa. As to the kind of experiment: Antibacterial activity against Pseudomonas aeruginosa QDIO-4 assessed as inhibition of bacterial growth by serial dilution method.
In a further assay the test system is Vibrio anguillarum. As to the kind of experiment: Antibacterial activity against Vibrio anguillarum QDIO-6 assessed as inhibition of bacterial growth by serial dilution method.
A further assay has as its system Vibrio alginolyticus. In words: Antibacterial activity against Vibrio alginolyticus QDIO-5 assessed as inhibition of bacterial growth by serial dilution method.
A further assay deals with Vibrio parahaemolyticus. In words: Antibacterial activity against Vibrio parahaemolyticus QDIO-8 assessed as inhibition of bacterial growth by serial dilution method.

In brackets after ≈: the same amount, converted by molar mass. Bounds are passed on as bounds.

For orientation: MIC means the smallest concentration in the dilution series that meets the test's criterion for growth inhibition. Regarding `Cc1ccc2c(c1/C=C/C=C/C(=O)O)[C@H](C)C[C@@](C)(O)C2`, the MIC is over 64 µg/mL in the assay on Aeromonas hydrophila; over 64 µg/mL in the assay on Escherichia coli; over 64 µg/mL in the assay on Edwardsiella tarda; over 64 µg/mL in the assay on Micrococcus luteus; 16 µg/mL (≈ 55.9 µM) in the assay on Pseudomonas aeruginosa; over 64 µg/mL in the assay on Vibrio anguillarum. The MIC with Vibrio alginolyticus and in the assay with Vibrio parahaemolyticus was over 64 µg/mL in each case.

On to `C[C@H]1C=C[C@H]2C[C@@H](CO)C[C@](C)(O)[C@@H]2[C@H]1/C=C/C=C/C(=O)O`, for which the MIC with Aeromonas hydrophila was over 64 µg/mL; in the assay with Escherichia coli it was over 64 µg/mL; with Edwardsiella tarda it was over 64 µg/mL; in the assay on Micrococcus luteus it was over 64 µg/mL; in the assay with Pseudomonas aeruginosa it was 4 µg/mL (≈ 13.1 µM); in the assay on Vibrio anguillarum, over 64 µg/mL. Besides, the MIC in the assay on Vibrio alginolyticus and with Vibrio parahaemolyticus was over 64 µg/mL throughout.

For the molecule `Cc1cc(C)c2c(/C=C/C=C/C(=O)O)c(CO)ccc2c1`, the MIC in the assay with Aeromonas hydrophila was 64 µg/mL (≈ 227 µM); in the assay with Escherichia coli, over 64 µg/mL; with Edwardsiella tarda it was over 64 µg/mL; with Micrococcus luteus, over 64 µg/mL; with Pseudomonas aeruginosa, over 64 µg/mL; in the assay on Vibrio anguillarum, over 64 µg/mL. Also, the MIC in the assay with Vibrio alginolyticus amounted to 32 µg/mL (≈ 113 µM); with Vibrio parahaemolyticus, 64 µg/mL (≈ 227 µM).

As for `Cc1cc(CO)cc2ccc(CO)c(/C=C/C=C/C(=O)O)c12`, the MIC in the assay with Aeromonas hydrophila, with Escherichia coli, in the assay with Edwardsiella tarda, in the assay on Micrococcus luteus, in the assay on Pseudomonas aeruginosa and in the assay with Vibrio anguillarum was over 64 µg/mL throughout. In addition, the MIC is 64 µg/mL (≈ 215 µM) in the assay with Vibrio alginolyticus and over 64 µg/mL with Vibrio parahaemolyticus.

`CO[C@]1(C)C=C[C@H]2C[C@@H](CO)C[C@@H](C)[C@@H]2[C@H]1/C=C/C=C/C(=O)O`: the MIC in the assay with Aeromonas hydrophila is over 64 µg/mL; in the assay on Escherichia coli it was over 64 µg/mL; with Edwardsiella tarda, over 64 µg/mL; in the assay with Micrococcus luteus, over 64 µg/mL; in the assay with Pseudomonas aeruginosa, over 64 µg/mL; in the assay with Vibrio anguillarum, 8 µg/mL (≈ 25 µM). The MIC is over 64 µg/mL in the assay with Vibrio alginolyticus and 64 µg/mL (≈ 200 µM) in the assay on Vibrio parahaemolyticus.

In the case of `C[C@@H]1C[C@H](CO)C[C@@H]2C=C[C@@](C)(O)[C@](O)(/C=C/C=C/C(=O)O)[C@@H]12`, the MIC with Aeromonas hydrophila was over 64 µg/mL; with Escherichia coli, over 64 µg/mL; with Edwardsiella tarda, over 64 µg/mL; with Micrococcus luteus it was over 64 µg/mL; in the assay on Pseudomonas aeruginosa, over 64 µg/mL; in the assay with Vibrio anguillarum it was 8 µg/mL (≈ 24.8 µM). Also, the MIC stood at 32 µg/mL (≈ 99.3 µM) in the assay on Vibrio alginolyticus and 64 µg/mL (≈ 199 µM) in the assay with Vibrio parahaemolyticus.

Turning to `Cc1ccc2c(c1/C=C/C=C/C(=O)O)[C@H](C)C[C@H](C)[C@@H]2O`, the MIC in the assay on Aeromonas hydrophila is 32 µg/mL (≈ 112 µM); in the assay with Escherichia coli, 64 µg/mL (≈ 223 µM); in the assay on Edwardsiella tarda, over 64 µg/mL; in the assay with Micrococcus luteus it was 64 µg/mL (≈ 223 µM); in the assay on Pseudomonas aeruginosa, over 64 µg/mL; in the assay with Vibrio anguillarum, 4 µg/mL (≈ 14 µM). Also, the MIC with Vibrio alginolyticus and with Vibrio parahaemolyticus was 32 µg/mL (≈ 112 µM) in each case.

`C[C@@H]1C[C@@H]2C=C[C@H](C)[C@H](/C=C/C=C/C(=O)O)[C@H]2[C@@](C)(O)C1`: the MIC in the assay with Aeromonas hydrophila is over 64 µg/mL; in the assay with Escherichia coli, 64 µg/mL (≈ 220 µM); in the assay on Edwardsiella tarda, over 64 µg/mL; in the assay on Micrococcus luteus, over 64 µg/mL; with Pseudomonas aeruginosa, over 64 µg/mL; in the assay with Vibrio anguillarum, over 64 µg/mL. The MIC with Vibrio alginolyticus was 32 µg/mL (≈ 110 µM); in the assay on Vibrio parahaemolyticus it was 64 µg/mL (≈ 220 µM).

`CC1C=C[C@H]2C[C@@H](CO)C[C@@H](C)[C@@H]2[C@H]1/C=C/C=C/C(=O)O` (stereo not given in full): the MIC in the assay with Aeromonas hydrophila is 64 µg/mL (≈ 220 µM); in the assay with Escherichia coli it was 64 µg/mL (≈ 220 µM); with Edwardsiella tarda, over 64 µg/mL; in the assay with Micrococcus luteus it was 8 µg/mL (≈ 27.5 µM); with Pseudomonas aeruginosa it was over 64 µg/mL; in the assay on Vibrio anguillarum, over 64 µg/mL. Moreover, the MIC in the assay with Vibrio alginolyticus is 8 µg/mL (≈ 27.5 µM); in the assay on Vibrio parahaemolyticus, over 64 µg/mL.

On to `Cc1cc(CO)cc2ccc(CO)c(/C=C\C=C\C(=O)O)c12`, for which the MIC with Aeromonas hydrophila, in the assay with Escherichia coli, in the assay on Edwardsiella tarda, with Micrococcus luteus, in the assay with Pseudomonas aeruginosa and in the assay with Vibrio anguillarum was over 64 µg/mL each time. The MIC with Vibrio alginolyticus and with Vibrio parahaemolyticus was over 64 µg/mL in each case.

Regarding `CO[C@@]1(C)C=C[C@H]2C[C@@H](CO)C[C@@H](C)[C@@H]2[C@H]1/C=C/C=C/C(=O)O`, the MIC in the assay on Aeromonas hydrophila was over 64 µg/mL; with Escherichia coli, 8 µg/mL (≈ 25 µM); in the assay with Edwardsiella tarda it was over 64 µg/mL; in the assay with Micrococcus luteus, over 64 µg/mL; with Pseudomonas aeruginosa, over 64 µg/mL; in the assay with Vibrio anguillarum, over 64 µg/mL. Further, the MIC was 32 µg/mL (≈ 99.9 µM) in the assay with Vibrio alginolyticus and over 64 µg/mL with Vibrio parahaemolyticus.

On to `Cc1ccc2c(c1/C=C/C=C/C(=O)O)[C@H](C)C[C@H](CO)C2`, for which the MIC in the assay on Aeromonas hydrophila was over 64 µg/mL; in the assay on Escherichia coli it was over 64 µg/mL; in the assay on Edwardsiella tarda, over 64 µg/mL; with Micrococcus luteus, over 64 µg/mL; in the assay on Pseudomonas aeruginosa, over 64 µg/mL; with Vibrio anguillarum, 4 µg/mL (≈ 14 µM). Also, the figures for the MIC in the assay with Vibrio alginolyticus and in the assay with Vibrio parahaemolyticus were over 64 µg/mL and 64 µg/mL (≈ 223 µM), respectively.

Turning to `Cc1ccc2c(c1/C=C/C=C/C(=O)O)[C@H](C)C[C@@](C)(O)C2=O`, the MIC in the assay on Aeromonas hydrophila was over 64 µg/mL; in the assay on Escherichia coli, 64 µg/mL (≈ 213 µM); in the assay on Edwardsiella tarda, over 64 µg/mL; with Micrococcus luteus, over 64 µg/mL; in the assay on Pseudomonas aeruginosa, over 64 µg/mL; with Vibrio anguillarum it was 4 µg/mL (≈ 13.3 µM). In addition, the MIC with Vibrio alginolyticus was over 64 µg/mL; in the assay on Vibrio parahaemolyticus it was 64 µg/mL (≈ 213 µM).

As to `Cc1ccc2cc(CO)cc(C)c2c1/C=C/C=C/C(=O)O`, the MIC in the assay with Aeromonas hydrophila is over 64 µg/mL; in the assay with Escherichia coli, 64 µg/mL (≈ 227 µM); in the assay on Edwardsiella tarda, 64 µg/mL (≈ 227 µM); in the assay on Micrococcus luteus it was 2 µg/mL (≈ 7.08 µM); in the assay on Pseudomonas aeruginosa, over 64 µg/mL; in the assay on Vibrio anguillarum, over 64 µg/mL. For the same molecule, the MIC with Vibrio alginolyticus is 16 µg/mL (≈ 56.7 µM); in the assay on Vibrio parahaemolyticus, 32 µg/mL (≈ 113 µM).

In the case of `O=C(N[C@H](CO)[C@H](O)c1ccc([N+](=O)[O-])cc1)C(Cl)Cl` [CHLORAMPHENICOL], the MIC in the assay with Aeromonas hydrophila worked out at 1 µg/mL (≈ 3.09 µM); in the assay on Escherichia coli, 1 µg/mL (≈ 3.09 µM); with Edwardsiella tarda, 2 µg/mL (≈ 6.19 µM); in the assay on Micrococcus luteus, 0.5 µg/mL (≈ 1.55 µM); in the assay with Pseudomonas aeruginosa it was 1 µg/mL (≈ 3.09 µM); with Vibrio anguillarum, 2 µg/mL (≈ 6.19 µM). Further, the values for the MIC in the assay on Vibrio alginolyticus and in the assay with Vibrio parahaemolyticus were 2 µg/mL (≈ 6.19 µM) and 1 µg/mL (≈ 3.09 µM), respectively.
